Here are results for twelve compounds from US8815872B2, “Macrocyclics pyrimidines as aurora kinase inhibitors” (Merck Patent GmbH, priority 2008, dated 2014).

One may read the IC50 as the point on the concentration scale where inhibition reaches its midpoint.

The target in one experiment is T1, Aurora A (Homo sapiens, UniProt O14965).
T1 construct: N-terminal GST fusion with full length Aurora A (1-403 amino acids); purchased Carna Biosciences 05-101
T1 sequence (O14965 1-403): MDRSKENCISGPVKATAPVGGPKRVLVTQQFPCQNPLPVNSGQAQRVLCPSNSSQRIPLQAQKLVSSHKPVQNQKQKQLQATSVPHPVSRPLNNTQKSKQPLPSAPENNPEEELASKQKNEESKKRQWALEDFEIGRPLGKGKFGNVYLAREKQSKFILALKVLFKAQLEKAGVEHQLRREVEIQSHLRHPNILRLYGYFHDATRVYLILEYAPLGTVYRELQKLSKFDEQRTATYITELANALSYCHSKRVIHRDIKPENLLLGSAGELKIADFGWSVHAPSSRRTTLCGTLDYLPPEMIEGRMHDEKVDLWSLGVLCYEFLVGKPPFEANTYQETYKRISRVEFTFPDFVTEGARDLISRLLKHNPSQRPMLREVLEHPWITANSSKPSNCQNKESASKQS
The experiment is described as follows: Aurora A enzyme assay (Caliper LC3000 mobility shift). It counts as biochemical. The method, then:
(§1) The Aurora and other kinase assays described here were performed on two Caliper Life Sciences systems, the LC3000 and the Desktop Profiler. These provide data on enzyme activity via measurement of the relative amounts of phosphorylated or unphosphorylated fluorescently labelled substrate peptide at the end of an enzymatic reaction. These different states of peptide are resolved by applying a potential difference across the sample. The presence of a charged phosphate group on the product (as opposed to the substrate) causes a different peptide mobility between the two peptides. This is visualized by excitation of a fluorescent label on the substrate and product peptides and represented as peaks within the analysis software.
For example, in order to measure inhibitor activity of Aurora A inhibitors in the Caliper Life Sciences LC3000, a TTP Mosquito liquid handling instrument was used to place […] of an appropriate concentration of inhibitor in 100% DMSO (for a dose response curve calculation) into each well of a 384-well plate. To this reaction components were added to a final volume of 25 μl: • 0.067 ng/μl GST-Aurora A (Carna Biosciences 05-101. N-terminal GST fusion with full length Aurora A (1-403 amino acids), accession number NP_940835.1). • 15 μM ATP (Fluka, 02055) • 1 mM DTT (Sigma, D0632) • 1 mM MgC12 (Sigma, M1028) • 1 μM substrate peptide (sequence FITC-LRRASLG-(CONH2), synthesized by Tufts Peptide Synthesis service. • 100 mM HEPES pH 7.5 (Calbiochem, 391338) • 0.015% Brij-35 (Sigma, B4184)
The reaction was incubated for 90 min at 25° C., and then stopped by the addition of 70 μl of Stop buffer (100 mM HEPES pH 7.5, 0.015% Brij-35, 10 mM EDTA (Sigma, E7889)).
The plate was read on a Caliper LC 3000 in an Off-Chip mobility shift assay format, using the following parameters for a 12-sipper chip: screening pressure −1.8 psi, upstream voltage −2700, downstream voltage −1000. These conditions cause unphosphorylated substrate and phosphorylated product peptide to resolve as separate peaks allowing direct measurement of percentage of conversion of substrate to product. The percent conversion was plotted against concentration of inhibitor to produce a sigmoidal dose response curve, from which an IC50 was calculated using XLFit for Microsoft Excel.

For a further experiment, the target named is Aurora B (Homo sapiens, UniProt Q96GD4). The experiment is described as follows: Aurora B enzyme assay (Caliper). It counts as biochemical. The method, then: as §1
In a further experiment the test system is A549. The experiment is described as follows: Cellular activity A549. The experiment is classed as cell-based. To be noted: Homo sapiens. The method, then: (§2) The susceptibility of a particular cell to treatment with the compounds according to the invention was determined by in vitro tests. Typically, a culture of the cell was combined with a compound according to the invention at various concentrations for a period of time that was sufficient to allow the active agents to induce cell death or to inhibit migration, usually between about one hour and one week. In vitro testing was carried out using cultivated cells from a biopsy sample. The viable cells remaining after the treatment then were counted.

The test system of another experiment is MiaPaca2. The experiment is described as follows: Cellular activity MiaPaca2. It counts as cell-based. Conditions: for IC50: Homo sapiens, MIA PaCa-2. As for the experimental part: as §2

Sequence of Aurora B (Q96GD4 whole entry): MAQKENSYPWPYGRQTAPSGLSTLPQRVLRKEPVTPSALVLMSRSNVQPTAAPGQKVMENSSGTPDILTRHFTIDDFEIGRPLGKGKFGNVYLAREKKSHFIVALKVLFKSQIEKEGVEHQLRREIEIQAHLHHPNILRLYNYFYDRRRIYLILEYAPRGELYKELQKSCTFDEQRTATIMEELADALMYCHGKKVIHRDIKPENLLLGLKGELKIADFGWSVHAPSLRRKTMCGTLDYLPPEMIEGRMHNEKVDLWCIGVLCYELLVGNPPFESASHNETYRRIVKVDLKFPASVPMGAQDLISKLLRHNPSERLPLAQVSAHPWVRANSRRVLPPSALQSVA

For `NC(=O)[C@H]1[C@H]2C[C@H]3[C@H]1Nc1nc(ncc1F)Nc1cccc(c1)CCC(=O)O[C@@H]3C2`, the IC50 is 0.101 to 1 µM on Aurora A, 0.101 to 1 µM at Aurora B, 1 to 6.25 µM in the experiment on A549 and 1 to 6.25 µM with MiaPaca2.
Take `NC(=O)[C@H]1[C@H]2C[C@H]3[C@H]1Nc1nc(ncc1F)Nc1cccc(c1)[C@H](OCCCN1CCOCC1)CS[C@@H]3C2`: the figures for the IC50 at Aurora A, against Aurora B and in the experiment on A549 were 0.101 to 1 µM, 0.101 to 1 µM and 1 to 6.25 µM, respectively. For the same compound, the “Cellular Activity MiaPaca2 IC50 (nM)” value with MiaPaca2 (MiaPaca2) is reported as “+++=”.
`NC(=O)[C@H]1[C@H]2C[C@H]3[C@H]1Nc1nc(ncc1F)Nc1cccc(c1)CCN[C@@H]3C2`: the IC50 fell in the range of 0.101 to 1 µM at Aurora A, 0.001 to 0.1 µM at Aurora B, 1 to 6.25 µM in the experiment with A549 and 1 to 6.25 µM in the experiment on MiaPaca2.
With `NC(=O)[C@H]1[C@H]2C[C@H]3[C@H]1Nc1nc(ncc1F)Nc1ccc4c(c1)N(CC4)C(=O)CS[C@@H]3C2`, the IC50 on Aurora A is 0.001 to 0.1 µM; against Aurora B it was 0.101 to 1 µM; with A549, > 6.25 µM; in the experiment with MiaPaca2, > 6.25 µM.
On to `CN1CCN(c2ccc3cc2OCCN[C@@H]2C[C@@H]4C[C@H]2[C@@H](Nc2nc(ncc2F)N3)[C@H]4C(N)=O)CC1`, for which the IC50 fell in the range of 0.101 to 1 µM at Aurora A, 0.001 to 0.1 µM on Aurora B, 0.101 to 1 µM with A549 and 0.101 to 1 µM in the experiment with MiaPaca2.
Turning to `NC(=O)[C@H]1[C@H]2C[C@H]3[C@H]1Nc1nc(ncc1F)Nc1cccc(c1)OCCCS[C@@H]3C2`, the IC50 at Aurora A was 0.001 to 0.1 µM; against Aurora B, 0.001 to 0.1 µM; in the experiment with A549, 1 to 6.25 µM; with MiaPaca2, 1 to 6.25 µM.
As to `Nc1ccc(/C=C/NC(=O)[C@H]2[C@H]3C[C@H]4[C@H]2Nc2nc(ncc2F)Nc2cccc(c2)C(=O)CS[C@@H]4C3)cc1`, the IC50 was 0.101 to 1 µM on Aurora A, 0.101 to 1 µM against Aurora B, > 6.25 µM in the experiment with A549 and > 6.25 µM in the experiment on MiaPaca2.
Turning to `NC(=O)[C@H]1[C@H]2C[C@H]3[C@H]1Nc1nc(ncc1F)Nc1cccc(c1)CCS(=O)(=O)[C@@H]3C2`, the IC50 at Aurora A lay within 0.001 to 0.1 µM; at Aurora B, 0.001 to 0.1 µM; in the experiment with A549, 1 to 6.25 µM; with MiaPaca2, 1 to 6.25 µM.
`NC(=O)[C@H]1[C@H]2C[C@H]3[C@H]1Nc1nc(ncc1F)Nc1ccc(F)c(c1)CC(=O)N[C@@H]3C2`: the IC50 at Aurora A lay within 0.001 to 0.1 µM; against Aurora B, 0.001 to 0.1 µM; in the experiment with A549, 1 to 6.25 µM; with MiaPaca2, 1 to 6.25 µM.
For the compound `NC(=O)[C@H]1[C@H]2C[C@H]3[C@H]1Nc1nc(ncc1F)Nc1cccc(c1)CSS[C@@H]3C2` [drawing 213], the IC50 at Aurora A fell in the range of 0.001 to 0.1 µM; at Aurora B, 0.001 to 0.1 µM; with A549, 1 to 6.25 µM; in the experiment on MiaPaca2, 1 to 6.25 µM.
`CN1CCC(c2ccc3cc2OCCS[C@@H]2C[C@@H]4C[C@H]2[C@@H](Nc2nc(ncc2F)N3)[C@H]4C(N)=O)CC1`: the IC50 at Aurora A lay within 0.001 to 0.1 µM; on Aurora B it was 0.001 to 0.1 µM; with A549, 0.101 to 1 µM; in the experiment on MiaPaca2 it was 0.101 to 1 µM.
`NC(=O)[C@H]1[C@H]2C[C@H]3[C@H]1Nc1nc(ncc1F)Nc1cccc(c1)CCC(=O)N[C@@H]3C2`: the IC50 is 0.101 to 1 µM at Aurora A, 0.101 to 1 µM at Aurora B, 1 to 6.25 µM in the experiment on A549 and 1 to 6.25 µM in the experiment on MiaPaca2.
